In publication PMC9865752, “Design and Synthesis of (Z)-2-(Benzylamino)-5-benzylidenethiazol-4(5H)-one Derivatives as Tyrosinase Inhibitors and Their Anti-Melanogenic and Antioxidant Effects” (Molecules, 2023):
Where two headings read alike, the source gives them in different places.

Columns and labels:
mushroom tyrosinase [1] = molecular target: T1, mushroom tyrosinase (Agaricus bisporus, UniProt C7FF04); test: Kinetic studies of mushroom tyrosinase inhibition (Lineweaver–Burk and Dixon plots); format: biochemical; details: substrate L-dopa
T1 construct: purchased
Protocol: Kinetic studies using Lineweaver–Burk plots were performed using four different concentrations (0, 0.5, 1, and 2 µM) of the test derivatives (7 and 8) and five different concentrations (0.5, 1, 2, 4, and 8 mM for 7, and 1, 2, 4, 8, and 16 mM for 8) of L-dopa.
Lineweaver–Burk plots for 7 and 8 were transformed into the corresponding Dixon plots to determine their inhibition constant (Ki) values for the mushroom tyrosinase–inhibitor complex. […] The Ki values for the mushroom tyrosinase–inhibitor complex were obtained from the x-axis value of each convergence point.
Lineweaver–Burk plots of derivatives 7 and 8 were obtained in the presence of L-dopa as the substrate. Briefly, 20 µL aliquots of mushroom tyrosinase aqueous solution (200 units/mL) were added to each well of a 96-well plate containing 10 µL BABT derivative (7 or 8) DMSO solution (final concentrations: 0, 0.5, 1, and 2 µM) and 170 µL of an aqueous solution containing L-dopa (final concentrations: 1.0, 2.0, 4.0, 8.0, and 16.0 mM) and sodium phosphate buffer (pH 6.5, 17.2 mM). The initial rate of dopachrome formation was determined by examining the changes in absorbance at a wavelength of 475 nm (ΔOD475/min) using a microplate reader (VersaMax; Molecular Devices).

[2] = SIN-1-induced ROS scavenging assay; details: 20 µM; SIN-1 as ROS generator; DCFH-DA probe
Excerpt: The scavenging activities of the BABT derivatives 1–14 against ROS and peroxynitrite (ONOO^−) were investigated because the antioxidant activities of the compounds may modulate melanogenesis. To measure the ROS scavenging activities of BABT derivatives, 2′,7′-dichlorodihydrofluorescein diacetate (DCFH-DA) and 3-morpholinosydnonimine (SIN-1) were used as a fluorogenic probe and ROS generator, respectively. The reaction of DCFH-DA with esterase produces 2′,7′-dichlorodihydrofluorescein (DCFH), which generates the fluorescent compound 2′,7′-dichlorofluorescein (DCF) by reacting with ROS produced by SIN-1. Therefore, ROS scavenging activities were determined by measuring the DCF fluorescence remaining after the BABT derivatives scavenged the ROS generated by SIN-1. […] BABT derivatives and Trolox, the positive control, were used at a concentration of 20 µM.
The ROS scavenging activities of the BABT derivatives were measured using an oxidant-sensitive fluorescent probe. Derivatives or Trolox (10 µL; final concentration: 20 µM) were seeded in a black 96-well plate. Then, 10 µL of SIN-1 (10 µM) was added to induce radical species generation and mixed with 180 µL of sodium phosphate buffer (pH 7.4) containing 12.5 µM DCF-DA and 600 units of esterase. Fluorescence intensity was measured at emission and excitation wavelengths of 535 and 485 nm, respectively, using a fluorescence microplate reader (Berthold Technologies GmbH & Co., Wien, Austria). Trolox was used as the positive control.

[3] = DPPH radical scavenging assay; details: test samples 500 µM; DPPH 0.18 mM; 30 min in the dark
Protocol: DPPH is a light-sensitive compound containing free radicals. The DPPH assay is one of the most common methods for evaluating the antioxidant activity of a compound. The effects of BABT derivatives on DPPH radical scavenging activities were evaluated using L-ascorbic acid as a positive reference control. DPPH radical scavenging activities were measured after leaving the mixed samples (test samples of 500 µM plus DPPH solution of 0.18 mM) in the dark for 30 min. To determine the radical scavenging activities, the absorbance of the mixed samples was measured at 517 nm.
According to previously described methods, with minor modifications, the DPPH radical scavenging activities of BABT derivatives 1–14 were measured. A DPPH (0.2 mM) and methanol solution (180 µL) was mixed with 20 µL of a DMSO solution containing 5 mM BABT derivative, or with 20 µL of an aqueous solution of 5 mM L-ascorbic acid, in each well of a 96-well plate and kept at ambient temperature in the dark for 30 min. The optical density of each well was measured at 517 nm using a microplate reader (VersaMax; Molecular Devices). L-Ascorbic acid was used as a positive reference control, and the DPPH radical scavenging abilities of BABT derivatives were compared with those of L-ascorbic acid. All experiments were performed independently, thrice.

B16F10 cells = test: Cell viability (EZ-Cytox assay); format: cell-based, murine; details: 0, 1, 2, 5, 10, 20 µM
Protocol: Before these experiments were performed, the influence of these derivatives on cytotoxicity in B16F10 cells was examined to determine their optimal concentration range for B16F10 cell experiments. The cytotoxicity of derivatives 7 and 8 at six concentrations (0, 1, 2, 5, 10, and 20 µM) was assessed using the EZ-Cytox assay.
Cytotoxicity assays in B16F10 cells were performed using the EZ-Cytox solution (EZ-3000, DoGenBio, Seoul, Republic of Korea). Briefly, B16F10 cells were seeded at a density of 1 × 10^4 cells per well and cultured at 37 °C in a 5% CO2 atmosphere for 24 h. […] Then, the EZ-Cytox solution (10 μL aliquot) was added to each well. After 2 h of incubation at 37 °C, the optical density of each well was measured at 450 nm using a microplate reader (VersaMax; Molecular Devices).

mushroom tyrosinase [4] = test: Mushroom tyrosinase inhibition assay; format: biochemical; details: for IC50: mean ± SEM of three experiments
Protocol: As mushroom tyrosinase is commercially available and relatively cheap, it is used as a tool for the identification of novel tyrosinase inhibitors. Here, we examined the tyrosinase inhibitory activities of the 14 BABT derivatives against mushroom tyrosinase in the presence of L-tyrosine or L-dopa as substrates.
Mushroom tyrosinase inhibitory activities of BABT derivatives were determined as described previously, with minor modifications. L-Tyrosine and L-dopa were used as substrates to evaluate the enzyme activity. […] Assay mixtures were incubated at 37 °C for 30 min, and dopachrome amounts synthesized were determined by measuring the optical density of each well at 475 nm using a microplate reader (VersaMax; Molecular Devices, Sunnyvale, CA, USA).

[5] = Peroxynitrite scavenging assay; details: 20 µM; SIN-1 as generator; DHR123 probe
Protocol: The effects of the BABT derivatives on peroxynitrite scavenging activities were also examined using SIN-1 as an RNS generator and dihydrorhodamine (DHR123) as an ROS indicator. DHR123 was converted to fluorescent rhodamine 123 by peroxynitrite generated by SIN-1. Therefore, the peroxynitrite scavenging activities of 1–14 were assessed by measuring the fluorescence of rhodamine 123. BABT derivatives and penicillamine, the positive control, were used at a concentration of 20 µM.
The peroxynitrite scavenging activities of the BABT derivatives were assessed using the method developed by Kooy, involving the monitoring of highly fluorescent rhodamine 123, which was rapidly produced from non-fluorescent DHR123 in the presence of peroxynitrite. Rhodamine buffer (pH 7.4) was composed of 50 mM sodium phosphate dibasic, 50 mM sodium phosphate monobasic, 90 mM sodium chloride, 5 mM potassium chloride, and 100 µM DTPA. A 10 µL aliquot of BABT derivatives or PCA (final concentration: 20 µM) was seeded in a black 96-well plate. Then, 10 µL of SIN-1 (10 µM) was added to induce radical species generation and mixed with 180 µL of rhodamine buffer. Fluorescence intensity was measured at emission and excitation wavelengths of 535 and 485 nm, respectively, using a fluorescence microplate reader (Berthold Technologies GmbH & Co.). PCA was used as the positive control.

[6] = ABTS radical scavenging assay; details: test samples 100 µM; 2 min in the dark
Protocol: An antioxidant assay using ABTS is also commonly used to assess the antioxidant activities of compounds. Donation of one electron from ABTS to potassium persulfate generates the ABTS radical cation. An ABTS radical scavenging activity assay was performed using 100 µM of BABT derivatives or Trolox (a positive reference control) by mixing test samples with ABTS radical cations obtained from a reaction of potassium persulfate and ABTS. ABTS radical scavenging activity was assessed by measuring the optical density at 734 nm after leaving the test sample–ABTS radical cation mixture in the dark for 2 min.
According to a previously described method, with minor modifications, the ABTS radical scavenging activities of BABT derivatives 1–14 were assessed. Briefly, an ABTS radical solution was prepared by mixing 10 mL of aqueous ABTS solution (7 mM) with 10 mL of potassium persulfate aqueous solution (2.45 mM), and the mixture was kept for 11–15 h in the dark at room temperature until the absorbance remained constant. Prior to the antioxidant assay experiments, the ABTS radical solution was diluted with water to adjust the absorbance at 734 nm to 0.70 ± 0.02. A 10 µL aliquot of BABT derivatives or Trolox at a concentration of 1000 µM was added to 90 µL of ABTS+ free radical solution in each well of a 96-well plate and incubated for 2 min in the dark at ambient temperature. The absorbance of each well was measured at 734 nm using a microplate reader (VersaMax; Molecular Devices). The ABTS+ radical scavenging activities of BABT derivatives were compared to those of Trolox. All experiments were carried out independently, thrice.

mushroom tyrosinase [7] = molecular target: mushroom tyrosinase; set-up: method as in PMID 26235587; details: in the presence of L-tyrosine; cited from earlier work
[8] = substrate L-tyrosine, read-out: IC50 (µM) L-Tyrosine

T1 sequence (C7FF04 1-392): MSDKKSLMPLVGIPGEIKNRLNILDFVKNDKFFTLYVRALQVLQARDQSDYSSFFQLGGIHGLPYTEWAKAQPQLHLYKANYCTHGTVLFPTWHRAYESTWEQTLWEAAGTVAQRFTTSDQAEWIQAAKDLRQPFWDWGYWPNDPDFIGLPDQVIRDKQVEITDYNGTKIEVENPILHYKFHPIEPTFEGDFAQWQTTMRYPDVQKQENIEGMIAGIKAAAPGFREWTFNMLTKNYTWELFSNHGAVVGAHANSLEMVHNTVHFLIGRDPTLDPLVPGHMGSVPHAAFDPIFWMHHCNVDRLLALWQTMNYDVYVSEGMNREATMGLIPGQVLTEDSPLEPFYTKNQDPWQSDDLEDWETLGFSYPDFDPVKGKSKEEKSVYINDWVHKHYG

IC50 (mushroom tyrosinase [4]; [8]) | Structure (SMILES) | ROS scavenging activity (in words) [2] | DPPH radical scavenging activity, % inhibition [3] | ABTS radical scavenging activity, % inhibition [6] | other results
10 ± 0.9 µM | COc1ccc(/C=C2\SC(NCc3ccccc3)=NC2=O)cc1O [Compound 7, (Z)-2-(benzylamino)-5-(3-hydroxy-4-methoxybenzylidene)thiazol-4(5H)-one] | moderate ROS scavenging activities | 47% |  | Ki (mushroom tyrosinase [1]; Dixon plots, read-out: inhibition constant (Ki) for the mushroom tyrosinase–inhibitor complex): 3.1 µM; mode of inhibition (mushroom tyrosinase [1]; Lineweaver–Burk plots): competitive inhibitors; cytotoxicity (B16F10 cells; 72 h): showed cytotoxicity at a concentration of 20 µM; cytotoxicity (B16F10 cells; up to 48 h): not cytotoxic at all concentrations; IC50 (mushroom tyrosinase [4]; substrate L-dopa, read-out: IC50 (µM) L-Dopa): 10.3 ± 0.24 µM; fold stronger tyrosinase inhibitory activity than derivative 5 (mushroom tyrosinase [4]; substrate L-tyrosine): 14.8 fold
> 300 µM | O=C1N=C(NCc2ccccc2)S/C1=C\c1ccc(O)c(O)c1 [Compound 9, (Z)-2-(benzylamino)-5-(3,4-dihydroxybenzylidene)thiazol-4(5H)-one] | strongly reduced the ROS levels enhanced by SIN-1 | 89% | 87% | peroxynitrite scavenging activity (in words) [5]: strong ROS and peroxynitrite scavenging activities; fold more potent than kojic acid (mushroom tyrosinase [4]; substrate L-dopa): 2 fold
 | O=C1N=C(Nc2nc3ccccc3s2)S/C1=C\c1ccc(O)cc1O [MHY2081] |  |  |  | IC50 (mushroom tyrosinase [7]): 1.8 µM
 | Cc1c(C)c2c(c(C)c1O)CCC(C)(C(=O)O)O2 (stereo not drawn) [Trolox, reference compound] | reduced the ROS levels enhanced by SIN-1 |  | 99% | 
